Results: US8829067B2, “Polymerizable compositions with initiators containing several Ge atoms” (Ivoclar Vivadent AG, priority 2008, dated 2014)
Where “and” joins values, the source holds several entries; their conditions need not be identical. Equal entries are not always repeated.

Experiments:
[1] = UV-VIS absorption of the photoinitiators; assay type: physicochemical; settings: for long-wave absorption maximum (λmax): UV-VIS; for extinction coefficient ε: at λmax
Source text: The photoinitiator di-Ge according to the invention with a long-wave absorption maximum of 400.5 nm has an extinction coefficient ε=3260 dm^2/mol which is thus more than twice that of benzoyltrimethylgermane mono-Ge (ε=1461 dm^2/mol), which leads to an improvement in photopolymerization activity. Compared with the Norrish type II photoinitiator camphorquinone widely used in the dental field, the extinction coefficient of which ε at λmax of 468 nm is only 380 dm^2/mol and which moreover requires an additional reducing agent, in most cases amine, for effective radical formation, the absorption maximum of di-Ge is clearly on a shorter wavelength and thus fades very well when irradiated.

[2] = background statement; cited from earlier work

SMILES | long-wave absorption maximum (λmax) [1] [nm] | extinction coefficient ε [1] | absorption maximum wavelength [2] [nm]
[CH3][Ge]([CH3])([CH3])[C](=O)c1ccccc1 [mono-Ge, benzoyltrimethylgermanium] | 411.5 | 1374 dm^2/mol and 1461 dm^2/mol | 
CC12CCC(C(=O)C1=O)C2(C)C (stereo not shown) [camphorquinone] | 468 | 380 dm^2/mol | 468
[CH3][Ge]([CH3])([CH3])[C](=O)c1ccc(OCCCCCCOc2ccc([C](=O)[Ge]([CH3])([CH3])[CH3])cc2)cc1 [di-Ge, 1,6-bis[4-(trimethylgermylcarbonyl)phenoxy]hexane] | 400.5 | 3260 dm^2/mol | 
